# Values of other authors, collected in patent US12640239B2, “Functional biomarkers for statin therapy in age-related macular degeneration (AMD)” (APELIOTUS TECHNOLOGIES, INC., priority 2017, dated 2026).
# Tested on: older adults with normal retinal health or AMD
# Conditions: 30-day course of 50,000 international units of oral retinol, cited from earlier work
compound,measurement,setting,value
CC1=C(/C=C/C(C)=C/C=C/C(C)=C/CO)C(C)(C)CCC1 [retinol],Dark adaptation vs placebo group,"30-day follow-up, 52 per group",significantly faster dark adaptation than the placebo group
same,Visual acuity vs placebo group,30-day follow-up,no difference in visual acuity between the groups
same,Improvement in dark adaptation after washout,after an additional 30-day washout period,reversed to the baseline level
